# Test results published in publication PMC11509018, “Evaluation of the Role of Tanshinone I in an In Vitro System of Charcot-Marie-Tooth Disease Type 2N” (International Journal of Molecular Sciences, 2024).
# Numbering of substitutions follows the chain as printed.
# Experiments:
# AlaRS^R326W = target: T1, AlaRS^R326W (Homo sapiens, UniProt P49588, R326W); experiment: Biolayer interferometry (BLI); assay type: binding; settings: immobilized AlaRS^R326W, mean ± SD, triplicate
# T1 construct: made in house; host or cells: E. coli BL21 (DE3), pET-21a
# T1 sequence (P49588 1-968 R326W): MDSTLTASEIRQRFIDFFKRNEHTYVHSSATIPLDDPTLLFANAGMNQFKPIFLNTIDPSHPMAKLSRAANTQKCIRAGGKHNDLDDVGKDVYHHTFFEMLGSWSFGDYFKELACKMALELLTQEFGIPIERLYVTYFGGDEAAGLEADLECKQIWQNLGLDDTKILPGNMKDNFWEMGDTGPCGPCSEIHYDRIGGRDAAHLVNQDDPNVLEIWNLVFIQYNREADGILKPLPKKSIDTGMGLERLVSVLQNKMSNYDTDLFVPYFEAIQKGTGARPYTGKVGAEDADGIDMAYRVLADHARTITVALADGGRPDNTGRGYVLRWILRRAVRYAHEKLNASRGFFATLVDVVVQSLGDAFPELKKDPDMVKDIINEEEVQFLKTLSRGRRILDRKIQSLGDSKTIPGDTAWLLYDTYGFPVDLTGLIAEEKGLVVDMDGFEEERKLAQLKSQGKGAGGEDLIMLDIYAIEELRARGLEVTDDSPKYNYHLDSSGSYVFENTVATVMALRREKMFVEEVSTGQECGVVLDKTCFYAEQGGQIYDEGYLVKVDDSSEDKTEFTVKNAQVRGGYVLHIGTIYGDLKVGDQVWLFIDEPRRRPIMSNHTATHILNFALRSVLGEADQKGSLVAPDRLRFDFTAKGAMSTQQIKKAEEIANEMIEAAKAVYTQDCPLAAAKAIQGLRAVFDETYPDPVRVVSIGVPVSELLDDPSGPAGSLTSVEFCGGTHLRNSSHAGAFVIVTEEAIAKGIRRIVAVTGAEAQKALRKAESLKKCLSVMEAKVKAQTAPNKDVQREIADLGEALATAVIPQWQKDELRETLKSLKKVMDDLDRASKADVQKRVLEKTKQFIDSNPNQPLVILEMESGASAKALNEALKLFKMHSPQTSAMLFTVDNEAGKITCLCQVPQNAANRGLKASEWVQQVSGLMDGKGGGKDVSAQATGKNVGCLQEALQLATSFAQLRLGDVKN
# Protocol: (§1) Furthermore, we examined the interaction of Tanshinone I with additional AlaRS CMT mutants capable of binding to Nrp1 and causing conformational changes by BLI and proteolysis assays on additional related mutants. […] To further quantify the binding of small molecules to mutant proteins, binding experiments with AlaRS^R329H proteins and small molecules were conducted using an Octet R8 system (ForteBio, Fremont, CA, USA). Purified His-tagged AlaRS^R329H proteins (500 μg/mL) were captured on Ni-NTA biosensors (ForteBio, Fremont, CA, USA), achieving a saturation response of 4–5 nm after 300 s. The biosensors were then transferred to Octet buffer (PBS with 0.01% Tween 20) for 180 s to remove loosely bound, nonspecific proteins and to establish a stable baseline. Following this, the sensors were immersed in diluted Tanshinone I (2.5–100 μM in assay buffer) for 120 s to record the association signal, and then transferred back into Octet buffer to monitor the dissociation signal for 120 s. Reference wells containing buffer instead of Tanshinone I were included to correct for baseline shifts. Additionally, a parallel set of Ni-NTA sensors in buffer served as negative reference controls to account for nonspecific binding of the compounds to the biosensor surface. The data were processed using a double reference subtraction protocol to eliminate nonspecific signals, background noise, and signal drifts caused by biosensor variability. All assays were performed in 96-well black plates with a total volume of 200 μL per well at 30 °C. Data analysis, including correction and curve fitting, was carried out using Octet® Analysis Studio 12.2.2.26. The experiment was repeated three times.
# AlaRS^G102R = target: T2, AlaRS^G102R (Homo sapiens, UniProt P49588, G102R); experiment: Biolayer interferometry (BLI); assay type: binding; settings: immobilized AlaRS^G102R, mean ± SD, triplicate
# T2 construct: made in house; host or cells: E. coli BL21 (DE3), pET-21a
# T2 sequence (P49588 1-968 G102R): T1 sequence (P49588 1-968 R326W) with G102R, W326R
# Protocol: as §1
smiles,measurement,setting,value
Cc1coc2c1C(=O)C(=O)c1c-2ccc2c(C)cccc12 [Tanshinone I],Kd,AlaRS^R326W,39.6 ± 6.4 µM
same,Kd,AlaRS^G102R,31.2 ± 11.9 µM
